Reference: article PMC6592262, “Isolation and functional characterization of two dioxygenases putatively involved in bixin biosynthesis in annatto (Bixa orellana L.)” (PeerJ, 2019)

Molecular target: T1, BoCCD4-3 (Bixa orellana, UniProt A0A140CWS5)
T1 construct: gene CCD4-3; complete ORF (1,785 bp amplicon, predicted 30-residue transit peptide kept) in pDEST17, arabinose-induced in lycopene-accumulating E. coli BL21 (pACCRTEIB); cells or crude cell-free extract, not purified
Test: cleavage in lycopene-accumulating E. coli and in cell-free extract; HPLC, UHPLC-ESI-QTOF-MS/MS, FTIR
Assay type: biochemical
Conditions: 1 mM lycopene added 1:1 to extract, 22 °C, up to 5 min; product bixin aldehyde (m/z 349.2), 5,6/5',6' cleavage; crude extract

T1 sequence (A0A140CWS5 entry or part of it): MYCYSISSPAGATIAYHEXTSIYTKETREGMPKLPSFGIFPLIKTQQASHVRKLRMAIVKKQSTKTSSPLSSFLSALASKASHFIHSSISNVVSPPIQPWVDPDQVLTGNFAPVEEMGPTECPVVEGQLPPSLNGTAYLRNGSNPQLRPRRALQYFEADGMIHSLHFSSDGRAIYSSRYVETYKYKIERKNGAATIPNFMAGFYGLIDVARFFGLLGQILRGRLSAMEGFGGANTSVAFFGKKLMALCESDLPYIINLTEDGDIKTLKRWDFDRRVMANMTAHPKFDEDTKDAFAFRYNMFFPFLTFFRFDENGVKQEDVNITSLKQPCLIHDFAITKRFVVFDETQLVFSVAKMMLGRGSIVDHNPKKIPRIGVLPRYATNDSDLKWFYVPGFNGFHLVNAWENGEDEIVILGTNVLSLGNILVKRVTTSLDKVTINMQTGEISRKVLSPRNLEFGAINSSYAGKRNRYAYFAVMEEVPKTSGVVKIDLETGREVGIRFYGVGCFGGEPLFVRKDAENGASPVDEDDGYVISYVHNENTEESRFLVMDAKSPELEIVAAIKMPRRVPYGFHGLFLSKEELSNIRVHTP

CC(C)=CCC/C(C)=C/C=C/C(C)=C/C=C/C(C)=C/C=C/C=C(C)/C=C/C=C(C)/C=C/C=C(\C)CCC=C(C)C [lycopene]
cleavage in lycopene-accumulating E. coli and in cell-free extract; HPLC, UHPLC-: BoCCD4-3 is also able to cleave lycopene into bixin aldehyde, but at lower efficiency
